Assay results reported in ChEMBL document CHEMBL3822358 (J Med Chem, 2016).
The source made the active and inactive calls. No cut-off for these calls is given here.

How the values were obtained:
[1] = AUC (0 to infinity) in CD rat at 3 mg/kg, iv by LC-MS/MS analysis; assay type: ADME, organism-based; set-up: dose 3 mg/kg, time infinity, route intravenous; conditions: CD, in vivo
[2] = Cmax in CD rat at 10 mg/kg, po by LC-MS/MS analysis; assay type: ADME, organism-based; set-up: dose 10 mg/kg, route oral; conditions: in vivo
[3] = target: Insulin-like growth factor 1 receptor (Homo sapiens, UniProt P08069)
Chain of Insulin-like growth factor 1 receptor (P08069 31-736 limits assumed): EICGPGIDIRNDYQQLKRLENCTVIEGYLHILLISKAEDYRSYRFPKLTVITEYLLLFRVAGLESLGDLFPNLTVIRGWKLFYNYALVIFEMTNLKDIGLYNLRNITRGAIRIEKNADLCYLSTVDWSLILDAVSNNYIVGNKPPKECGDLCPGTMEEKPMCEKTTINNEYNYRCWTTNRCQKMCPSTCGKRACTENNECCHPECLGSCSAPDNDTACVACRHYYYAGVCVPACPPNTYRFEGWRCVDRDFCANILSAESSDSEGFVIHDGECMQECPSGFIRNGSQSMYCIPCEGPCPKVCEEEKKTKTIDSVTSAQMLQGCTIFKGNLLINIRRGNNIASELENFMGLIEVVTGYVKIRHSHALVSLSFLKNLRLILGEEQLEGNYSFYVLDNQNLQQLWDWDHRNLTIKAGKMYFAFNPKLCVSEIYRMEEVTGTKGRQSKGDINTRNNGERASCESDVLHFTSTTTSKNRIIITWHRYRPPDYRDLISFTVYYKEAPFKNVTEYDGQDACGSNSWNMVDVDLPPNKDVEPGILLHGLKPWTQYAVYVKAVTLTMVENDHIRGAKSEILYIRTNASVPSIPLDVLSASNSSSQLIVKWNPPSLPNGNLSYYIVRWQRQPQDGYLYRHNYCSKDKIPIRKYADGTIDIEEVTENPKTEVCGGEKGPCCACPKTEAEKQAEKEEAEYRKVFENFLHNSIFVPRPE
Chain of Insulin-like growth factor 1 receptor (P08069 741-1367 limits assumed): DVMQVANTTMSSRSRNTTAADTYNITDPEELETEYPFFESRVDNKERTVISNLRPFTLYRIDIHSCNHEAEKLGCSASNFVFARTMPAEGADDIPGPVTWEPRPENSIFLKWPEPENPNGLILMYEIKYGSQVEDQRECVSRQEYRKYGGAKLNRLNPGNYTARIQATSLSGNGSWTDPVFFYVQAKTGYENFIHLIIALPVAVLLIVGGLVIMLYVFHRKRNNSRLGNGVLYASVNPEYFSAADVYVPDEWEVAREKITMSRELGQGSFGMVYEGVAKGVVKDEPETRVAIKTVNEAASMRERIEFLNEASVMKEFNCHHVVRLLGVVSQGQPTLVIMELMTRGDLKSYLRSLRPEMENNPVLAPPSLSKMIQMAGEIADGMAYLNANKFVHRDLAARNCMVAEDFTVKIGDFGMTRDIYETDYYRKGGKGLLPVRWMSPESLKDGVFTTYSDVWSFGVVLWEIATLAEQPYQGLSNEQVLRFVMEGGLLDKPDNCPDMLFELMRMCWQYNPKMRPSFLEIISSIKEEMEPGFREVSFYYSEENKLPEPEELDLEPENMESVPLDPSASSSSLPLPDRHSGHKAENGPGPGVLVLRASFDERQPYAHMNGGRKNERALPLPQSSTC

[4] = target: T1, ALK tyrosine kinase receptor (Homo sapiens, UniProt Q9UM73); test: Inhibition of ALK phosphorylation in mouse xenografted with human KARPAS299 cells assessed as p-ALK level at 25 mg/kg, po administered as single dose measured after 10 hrs relative to 2 hrs vehicle-treated tumor; assay type: organism-based; set-up: scale not given: the % may be the effect or the level left; conditions: KARPAS-299
Target sequence in this assay (Q9UM73 19-1620 limits assumed): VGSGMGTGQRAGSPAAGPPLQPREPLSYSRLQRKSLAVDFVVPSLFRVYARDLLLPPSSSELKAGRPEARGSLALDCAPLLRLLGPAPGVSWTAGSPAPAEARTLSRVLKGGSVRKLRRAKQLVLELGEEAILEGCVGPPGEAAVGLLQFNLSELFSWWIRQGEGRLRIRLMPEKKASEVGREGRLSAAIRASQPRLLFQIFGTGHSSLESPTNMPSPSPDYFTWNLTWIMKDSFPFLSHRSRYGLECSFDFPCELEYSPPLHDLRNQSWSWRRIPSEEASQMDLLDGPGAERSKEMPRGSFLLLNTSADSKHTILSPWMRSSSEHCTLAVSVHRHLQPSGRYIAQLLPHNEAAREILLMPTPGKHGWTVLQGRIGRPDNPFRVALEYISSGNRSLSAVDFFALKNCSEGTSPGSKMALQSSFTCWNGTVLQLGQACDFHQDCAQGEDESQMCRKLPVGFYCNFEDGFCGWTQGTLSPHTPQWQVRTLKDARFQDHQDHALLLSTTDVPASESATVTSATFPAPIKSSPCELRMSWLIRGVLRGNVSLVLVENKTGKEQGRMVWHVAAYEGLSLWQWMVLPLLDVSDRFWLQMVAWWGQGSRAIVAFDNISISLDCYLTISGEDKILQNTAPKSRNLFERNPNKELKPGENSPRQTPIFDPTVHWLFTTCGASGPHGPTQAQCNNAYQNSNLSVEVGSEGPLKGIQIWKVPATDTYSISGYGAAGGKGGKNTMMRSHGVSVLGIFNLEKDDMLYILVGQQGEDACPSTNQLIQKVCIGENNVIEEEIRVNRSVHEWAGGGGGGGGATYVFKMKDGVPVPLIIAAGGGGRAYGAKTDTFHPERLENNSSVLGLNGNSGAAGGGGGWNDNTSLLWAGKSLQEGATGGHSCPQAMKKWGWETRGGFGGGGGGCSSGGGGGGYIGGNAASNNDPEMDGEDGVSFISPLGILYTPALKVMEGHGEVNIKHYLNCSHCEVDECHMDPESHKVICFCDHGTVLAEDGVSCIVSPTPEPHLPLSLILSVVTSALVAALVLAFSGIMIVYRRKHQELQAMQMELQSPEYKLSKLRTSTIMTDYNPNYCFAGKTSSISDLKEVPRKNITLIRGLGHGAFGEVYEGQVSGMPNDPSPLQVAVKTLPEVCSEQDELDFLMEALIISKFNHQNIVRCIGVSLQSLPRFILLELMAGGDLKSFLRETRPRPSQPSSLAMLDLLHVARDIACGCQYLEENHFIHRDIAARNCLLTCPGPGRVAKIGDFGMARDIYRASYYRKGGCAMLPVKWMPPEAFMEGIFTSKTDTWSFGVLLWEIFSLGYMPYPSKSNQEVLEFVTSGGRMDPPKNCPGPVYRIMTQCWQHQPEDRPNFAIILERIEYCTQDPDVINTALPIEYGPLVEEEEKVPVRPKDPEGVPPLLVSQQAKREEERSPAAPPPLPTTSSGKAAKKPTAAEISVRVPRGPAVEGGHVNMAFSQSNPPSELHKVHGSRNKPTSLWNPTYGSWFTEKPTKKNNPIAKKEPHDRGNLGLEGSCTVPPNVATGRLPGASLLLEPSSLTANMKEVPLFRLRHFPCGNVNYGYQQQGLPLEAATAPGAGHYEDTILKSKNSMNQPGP

[5] = target: T1, ALK tyrosine kinase receptor; test: Inhibition of ALK phosphorylation in mouse xenografted with human KARPAS299 cells assessed as p-ALK level at 25 mg/kg, po administered as single dose measured after 16 hrs relative to 2 hrs vehicle-treated tumor; assay type: organism-based; set-up: scale not given: the % may be the effect or the level left; conditions: KARPAS-299
Target sequence in this assay (Q9UM73 19-1620 limits assumed): as above

[6] = Half life in CD rat at 10 mg/kg, po by LC-MS/MS analysis; assay type: ADME, organism-based; conditions: in vivo
[7] = target: T1, ALK tyrosine kinase receptor; test: Inhibition of ALK phosphorylation in mouse xenografted with human KARPAS299 cells assessed as p-ALK level at 25 mg/kg, po administered as single dose measured after 24 hrs relative to 2 hrs vehicle-treated tumor; assay type: organism-based; set-up: scale not given: the % may be the effect or the level left; conditions: KARPAS-299
Target sequence in this assay (Q9UM73 19-1620 limits assumed): as above

[8] = Tmax in CD rat at 10 mg/kg, po by LC-MS/MS analysis; assay type: ADME, organism-based; conditions: in vivo
[9] = Oral bioavailability in CD rat at 10 mg/kg by LC-MS/MS analysis; assay type: ADME, organism-based; conditions: in vivo
[10] = target: Insulin receptor (Homo sapiens, UniProt P06213)
Description: Inhibition of human InsR using myelin basic protein as substrate and [gamma-33P]ATP measured after 1 hr

[11] = Clearance in CD rat at 3 mg/kg, iv by LC-MS/MS analysis; assay type: ADME, organism-based; conditions: in vivo
[12] = target: T1, ALK tyrosine kinase receptor
Target sequence in this assay (Q9UM73 whole entry): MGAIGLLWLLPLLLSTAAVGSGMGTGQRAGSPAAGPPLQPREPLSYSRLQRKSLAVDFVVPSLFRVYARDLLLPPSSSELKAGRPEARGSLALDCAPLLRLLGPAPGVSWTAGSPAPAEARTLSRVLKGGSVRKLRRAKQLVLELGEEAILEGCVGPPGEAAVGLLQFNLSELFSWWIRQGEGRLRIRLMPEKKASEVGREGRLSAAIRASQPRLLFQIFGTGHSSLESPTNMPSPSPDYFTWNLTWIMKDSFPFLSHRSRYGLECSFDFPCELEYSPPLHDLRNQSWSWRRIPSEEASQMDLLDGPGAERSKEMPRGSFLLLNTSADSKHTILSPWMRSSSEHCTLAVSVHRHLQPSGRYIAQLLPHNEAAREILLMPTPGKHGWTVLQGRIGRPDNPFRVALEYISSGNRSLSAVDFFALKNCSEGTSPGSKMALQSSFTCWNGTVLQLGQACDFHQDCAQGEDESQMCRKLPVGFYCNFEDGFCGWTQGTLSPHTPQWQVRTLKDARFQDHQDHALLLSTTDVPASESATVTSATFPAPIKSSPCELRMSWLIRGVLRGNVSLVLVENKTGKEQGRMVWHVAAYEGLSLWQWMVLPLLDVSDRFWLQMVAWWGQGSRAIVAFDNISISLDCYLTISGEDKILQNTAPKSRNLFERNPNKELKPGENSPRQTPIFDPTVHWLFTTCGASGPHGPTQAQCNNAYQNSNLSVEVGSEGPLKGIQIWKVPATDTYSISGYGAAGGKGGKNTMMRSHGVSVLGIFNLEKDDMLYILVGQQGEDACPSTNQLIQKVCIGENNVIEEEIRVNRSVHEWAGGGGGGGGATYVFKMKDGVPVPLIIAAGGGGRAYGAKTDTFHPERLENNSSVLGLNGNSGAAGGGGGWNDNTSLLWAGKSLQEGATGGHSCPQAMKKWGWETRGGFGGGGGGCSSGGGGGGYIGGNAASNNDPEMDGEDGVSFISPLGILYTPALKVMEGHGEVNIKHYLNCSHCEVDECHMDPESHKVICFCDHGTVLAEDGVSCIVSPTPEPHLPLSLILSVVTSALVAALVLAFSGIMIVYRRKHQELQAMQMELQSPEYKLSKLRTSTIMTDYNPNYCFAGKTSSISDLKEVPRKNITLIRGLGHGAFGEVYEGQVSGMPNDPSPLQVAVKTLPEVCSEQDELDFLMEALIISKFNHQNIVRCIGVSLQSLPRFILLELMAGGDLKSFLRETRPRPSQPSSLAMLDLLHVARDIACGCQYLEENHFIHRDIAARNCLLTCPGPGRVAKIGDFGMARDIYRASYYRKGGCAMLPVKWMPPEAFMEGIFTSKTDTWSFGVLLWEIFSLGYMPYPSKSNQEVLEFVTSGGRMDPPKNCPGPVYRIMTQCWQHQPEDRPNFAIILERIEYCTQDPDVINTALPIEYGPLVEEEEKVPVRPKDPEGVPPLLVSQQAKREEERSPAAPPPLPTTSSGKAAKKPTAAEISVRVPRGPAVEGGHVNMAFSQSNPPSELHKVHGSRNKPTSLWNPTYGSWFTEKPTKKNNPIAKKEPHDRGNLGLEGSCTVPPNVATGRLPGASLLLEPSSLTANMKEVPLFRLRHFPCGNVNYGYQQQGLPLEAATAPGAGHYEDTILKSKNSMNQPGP
Description: Inhibition of human ALK using poly[Glu:Tyr] (4:1) as substrate and [gamma-33P]ATP measured after 1 hr

[13] = Volume of distribution at steady state in CD rat at 3 mg/kg, iv by LC-MS/MS analysis; assay type: ADME, organism-based; conditions: CD, in vivo, read-out: Vdss
[14] = Half life in CD rat at 3 mg/kg, iv by LC-MS/MS analysis; assay type: ADME, organism-based; conditions: CD, in vivo
[15] = cells; conditions: Homo sapiens, KARPAS-299, 72 h
Description: Antiproliferative activity against human ALK-positive KARPAS299 cells assessed as reduction in cell viability measured after 72 hrs by CellTiter 96 aqueous one solution cell proliferation assay

[16] = cells; conditions: Homo sapiens, U-937, 72 h
Description: Antiproliferative activity against human ALK-negative U937 cells assessed as reduction in cell viability measured after 72 hrs by CellTiter 96 aqueous one solution cell proliferation assay

[17] = AUC (0 to infinity) in CD rat at 10 mg/kg, po by LC-MS/MS analysis; assay type: ADME, organism-based; set-up: dose 10 mg/kg, route oral, time infinity; conditions: in vivo
[18] = AUC (0 to 24 hrs) in mouse at 10 mg/kg, po by LC-MS/MS analysis; assay type: ADME, organism-based; set-up: time < 24 hr, dose 10 mg/kg, route oral; conditions: in vivo
[19] = Cmax in mouse at 10 mg/kg, po by LC-MS/MS analysis; assay type: ADME, organism-based; set-up: dose 10 mg/kg, route oral; conditions: in vivo
[20] = Half life in mouse at 10 mg/kg, po by LC-MS/MS analysis; assay type: ADME, organism-based; conditions: in vivo
[21] = animal or person; conditions: Homo sapiens, KARPAS-299, po, 312 h, read-out: TGI
Description: Antitumor activity against human KARPAS299 cells expressing NMP-ALK fusion protein xenografted in SCID/beige mouse assessed as tumor growth inhibition at 10 mg/kg, po administered once daily for 13 days relative to untreated control

[22] = target: T1, ALK tyrosine kinase receptor; test: Inhibition of ALK phosphorylation in mouse xenografted with human KARPAS299 cells assessed as p-ALK level at 25 mg/kg, po administered as single dose measured after 8 hrs relative to 2 hrs vehicle-treated tumor; assay type: organism-based; set-up: scale not given: the % may be the effect or the level left; conditions: KARPAS-299
Target sequence in this assay (Q9UM73 19-1620 limits assumed): as the sequence (Q9UM73 19-1620 limits assumed) above

[23] = animal or person; conditions: Homo sapiens, KARPAS-299, po, 312 h, read-out: TGI; remark: listed apart in the source
Description: Antitumor activity against human KARPAS299 cells expressing NMP-ALK fusion protein xenografted in SCID/beige mouse assessed as tumor growth inhibition at 50 mg/kg, po administered once daily for 13 days relative to untreated control

[24] = animal or person; conditions: Homo sapiens, KARPAS-299, po, 312 h, read-out: TGI; remark: listed apart in the source
Description: Antitumor activity against human KARPAS299 cells expressing NMP-ALK fusion protein xenografted in SCID/beige mouse assessed as tumor growth inhibition at 25 mg/kg, po administered once daily for 13 days relative to untreated control

[25] = test system: KARPAS-299; test: Antitumor activity against human KARPAS299 cells xenografted in SCID/beige mouse assessed as tumor growth inhibition administered orally once daily for 13 days relative to untreated control; assay type: functional, cell-based
[26] = test system: Mus musculus; test: Toxicity in SCID/beige mouse xenografted with human KARPAS299 cells expressing […] fusion protein at 50 mg/kg, po administered once daily for 13 days; assay type: organism-based, KARPAS-299; conditions: in vivo, 312 h
[27] = test system: KARPAS-299; test: Antitumor activity against human KARPAS299 cells expressing […] fusion protein xenografted in SCID/beige mouse assessed as tumor stasis at 50 mg/kg, po administered once daily for 13 days; assay type: functional, organism-based

SMILES | AUC(0-inf) [1] [ng·h/mL] | Cmax [2] [ng/mL] | IC50 [3] [nM] | Activity [4] [%] | Activity [5] [%] | half-life [6] [h] | Activity [7] [%] | Tmax [8] [h] | bioavailability [9] [%] | IC50 [10] [nM] | clearance [11] [mL/min/kg] | IC50 [12] [nM] | Vd [13] [L/kg] | half-life [14] [h] | IC50 [15] [nM] | IC50 [16] [nM] | AUC(0-inf) [17] [ng·h/mL] | AUC(0-t) at 24 h [18] [ng·h/mL] | Cmax [19] [ng/mL] | half-life [20] [h] | other results
COc1cc(N2CCC(N3CCOCC3)CC2)ccc1Nc1ncc(Cl)c(Nc2ccccc2P(C)(C)=O)n1 | 17900 | 2840 | 47.3 | 15 | 52 | 6.8 | 50 | 2 | 73 | 270 | 2.83 | 0.49 | 0.78 | 3.9 | 61 | 5680 | 43600 |  |  |  | 
COc1cc(OC2CCN(C)CC2)ccc1Nc1ncc(Cl)c(Nc2ccccc2P(C)(C)=O)n1 | 5040 | 659 | 86.5 | 23 | 125 | 3.9 | 160 | 4 | 55 | 343 | 9.83 | 0.54 | 2.89 | 3.6 | 55.5 | 4520 | 9220 | 951 | 184 | 1.6 | 
COc1cc(C2CCN(C)CC2)ccc1Nc1ncc(Cl)c(Nc2ccccc2P(C)(C)=O)n1 | 1550 | 601 | 8.2 | 1 | 69 | 2.5 | 118 | 4 | 110 | 57.2 | 31.8 | 0.38 | 8.55 | 4 | 19.2 | 3560 | 5670 | 3450 | 421 | 5 | 
COc1cc(N2CCC(O)CC2)ccc1Nc1ncc(Cl)c(Nc2ccccc2P(C)(C)=O)n1 | 4550 | 772 | 26.9 |  | 25 | 2.7 | 168 | 0.25 | 64 | 171 | 10.7 | 0.36 | 2.74 | 5.6 | 70.4 | 7230 | 9720 | 13300 | 2940 | 2.2 | inhibition in vivo at 10 mg/kg [21]: 96%; Activity [22]: 41%; inhibition in vivo at 50 mg/kg [23]: 67%; inhibition in vivo at 25 mg/kg [24]: 85%
COc1cc(N2CCN(C)CC2)ccc1Nc1ncc(Cl)c(Nc2ccccc2P(C)(C)=O)n1 | 3090 | 254 | 20.3 | 2 | 14 | 12.5 | 94 | 6 | 39 | 90.6 | 15.2 | 0.18 | 6.12 | 6.6 | 28.3 | 1590 | 4060 | 5180 | 418 | 2.7 | inhibition in vivo at 10 mg/kg [21]: 81%; TGI [25]: Dose-dependent effect; Activity [26]: Non-toxic; inhibition in vivo at 50 mg/kg [23]: 1.4%; Activity [27]: Active; inhibition in vivo at 25 mg/kg [24]: 41%
COc1cc(N2CCC(N3CCCC3)CC2)ccc1Nc1ncc(Cl)c(Nc2ccccc2P(C)(C)=O)n1 | 2170 | 109 | 20.3 | 2 | 39 | 3.7 | 51 | 4 | 19 | 85.3 | 22.7 | 0.53 | 6.61 | 4.7 | 21.1 | 1680 | 1350 | 3230 | 411 | 3.1 | inhibition in vivo at 10 mg/kg [21]: 76%; inhibition in vivo at 50 mg/kg [23]: 26%; inhibition in vivo at 25 mg/kg [24]: 52%
COc1cc(N2CCN(CCO)CC2)ccc1Nc1ncc(Cl)c(Nc2ccccc2P(C)(C)=O)n1 | 1330 | 75.7 | 12.8 |  |  | 2.9 |  | 4 | 18 | 28.1 | 35.8 | 0.18 | 9.51 | 8.4 | 37.6 | 1800 | 777 |  |  |  | 
COc1cc(N2CCC(CN3CCC3)CC2)ccc1Nc1ncc(Cl)c(Nc2ccccc2P(C)(C)=O)n1 | 8620 | 353 | 31.6 | 13 | 60 | 3.4 | 104 | 6 | 16 | 130 | 5.83 | 0.88 | 1.46 | 3.6 | 29.9 | 2720 | 4570 | 6490 | 498 | 3.1 | 
